Columns and labels:
Saccharomyces cerevisiae [1] = test: Antifungal activity against Saccharomyces cerevisiae RS321NYCp50 by microtiter yeast assay; format: functional, organism-based
Saccharomyces cerevisiae [2] = test: Antifungal activity against Saccharomyces cerevisiae RS321NpRAD52 by microtiter yeast assay; format: functional, organism-based
A2780 = test: Cytotoxicity against human A2780 cells; format: functional

| Structure (SMILES) | Activity (Saccharomyces cerevisiae [1]) | Activity (Saccharomyces cerevisiae [2]) | Activity (A2780) |
| --- | --- | --- | --- |
| CN(C=O)CCc1ccc(O)cc1 | Dose-dependent effect | Dose-dependent effect | – |
| CN1CCc2c([nH]c3ccccc23)C1 | – | – | 38% |
| CN(C)CCc1ccc(O)cc1 [HORDENINE] | – | – | 39% |
